Read-outs that look alike come from different tables or passages of the source.
How the values were obtained:
[1] = tested on: mouse hepatocytes (CD-1 males); experiment: Intrinsic clearance in cryopreserved mouse hepatocytes; format: in vitro ADME
Experimental: (§1) Cryopreserved hepatocytes from humans, rats (Sprague-Dawley males) and from mice (CD-1 males) were used for incubation at different times (0, 0.5, 1, 1.5, 2 hours) at 37° C. followed by HPLC-MS/MS detection. The aim was to verify the clearance time of the test substance on hepatocytes. The experiment was performed on a 96-well plate and the cryopreserved hepatocytes were thawed and resuspended in Krebs-Heinslet buffer(pH 7.3). The reaction was started by adding each test compound to each cell suspension and performing the incubation at the times indicated above. The reaction was quenched with addition of acetonitrile in the wells and detection by HPLC-MS/MS (mass spectrometry). MS/MS is performed by combining two mass detectors into a single instrument.

[2] = Pharmacokinetics (PK) in mouse, I.V. and oral; format: in vivo, CD-1 mice
Experimental: PK tests were performed with CD-1 mice, using 4 animals per molecule tested, 2 animals for pharmacokinetic analysis by intravenous (IV) administration and 2 animals for oral administration. The treatment was carried out in a single dose: I.V. group with dose of 1 mg/kg and Oral group with dose of 10 mg/kg. […] Blood collection was performed after euthanasia at 08 defined time points and at 24 hours post-dose. The pharmacokinetic analysis parameters detected for Group IV were: half-life (t½), drug concentration at time zero (C0), last measurable plasma concentration (AUClast), area under the plasma concentration curve extrapolation percentage (AUC % ext), area under the plasma concentration curve extrapolation to infinity (AUCinf), volume of distribution (Vz), steady state volume of distribution (Vss), clearance (CL) and mean residence time (MRT). The parameters evaluated for the Oral group were: bioavailability (F %), maximum concentration reached (Cmax), time to reach maximum plasma concentration (Tmax), last measurable plasma concentration (AUClast), area under the plasma concentration curve extrapolation percentage (AUC % ext), area under the plasma concentration curve extrapolation to infinity (AUCinf), area under the plasma concentration curve extrapolation to infinity versus dose (AUCinf/Dose), half-Life (t½), and mean residence time (MRT).

[3] = tested on: rat hepatocytes (Sprague-Dawley males); experiment: Intrinsic clearance in cryopreserved rat hepatocytes; format: in vitro ADME
Experimental: as §1

[4] = Pharmacokinetics (PK) in rat, I.V. and oral; format: in vivo, Wistar-Han rats
Experimental: […] The study lasted for 2 weeks (including acclimation time and study), in which the route of administration was made by injection into the caudal vein and oral gavage. The treatment was carried out in a single dose: I.V. group with dose of 1 mg/kg and Oral group with dose of 10 mg/kg. […] Clinical observations were made twice a day (morning and afternoon) in the pre-dose at the 08 time points defined in the protocol. Blood collection was performed after euthanasia in the pre-dose animals at 08 defined time points and at 24 hours post-dose. The pharmacokinetic analysis parameters detected for Group IV were: half-life (t½), drug concentration at time zero (C0), last measurable plasma concentration (AUClast), area under the plasma concentration curve extrapolation percentage (AUC % ext), area under the plasma concentration curve extrapolation to infinity (AUCinf), volume of distribution (Vz), steady state volume of distribution (Vss), clearance (CL) and mean residence time (MRT). The parameters evaluated for the Oral group were: bioavailability (F %), maximum concentration reached (Cmax), time to reach maximum plasma concentration (Tmax), last measurable plasma concentration (AUClast), area under the plasma concentration curve extrapolation percentage (AUC % ext), area under the plasma concentration curve extrapolation to infinity (AUCinf), area under the plasma concentration curve extrapolation to infinity versus dose (AUCinf/Dose), half-Life (t½), and mean residence time (MRT).

[5] = oral, estimated, from literature; cited from earlier work
MT1 receptor = MT1 receptor (Homo sapiens (Human), UniProt P48039); experiment: MT1 functional assay; settings: MT1 and MT2 receptors
[6] = CD-1, plasma, intravenous 1 mg/kg
[7] = oral 10 mg/kg vs intravenous 1 mg/kg
[8] = Wistar-Han, plasma, intravenous 1 mg/kg

Sequence of MT1 receptor (P48039 whole entry): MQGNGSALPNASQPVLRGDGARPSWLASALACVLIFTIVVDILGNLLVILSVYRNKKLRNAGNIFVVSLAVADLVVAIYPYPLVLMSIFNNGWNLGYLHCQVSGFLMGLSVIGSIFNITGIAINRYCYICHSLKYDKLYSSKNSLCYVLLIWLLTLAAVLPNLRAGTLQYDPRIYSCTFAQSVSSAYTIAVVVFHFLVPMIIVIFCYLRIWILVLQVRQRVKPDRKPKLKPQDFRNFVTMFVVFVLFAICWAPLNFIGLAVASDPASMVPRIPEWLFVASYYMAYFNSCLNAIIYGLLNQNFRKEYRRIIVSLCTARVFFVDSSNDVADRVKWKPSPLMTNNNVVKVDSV

Intrinsic clearance half-life, Mouse CD-1 [1]: 25 min
C0 [2, 6]: 811 ng/mL
clearance [2, 6]: 116 mL/min/kg
half-life [2, 6]: 8.94 min
AUC(0-t) ([2]; CD-1, plasma, oral 10 mg/kg): 30.3 ng·h/mL
bioavailability ([2]; CD-1, plasma, oral 10 mg/kg vs intravenous 1 mg/kg, read-out: F (%) bioavailability): 2.42%
Cmax ([2]; CD-1, plasma, oral 10 mg/kg, read-out: Cmax): 21.9 ng/mL
Tmax ([2]; CD-1, plasma, oral 10 mg/kg, read-out: Tmax): 15 min
Cmax ([2]; oral 10 mg/kg): 21.9 ng/mL
Tmax ([2]; oral 10 mg/kg): 15 min
F (%) bioavailability [2, 7]: 2.42%
Intrinsic clearance half-life, Rat Sprague-Dawley [3]: 50 min
clearance [4, 8]: 39.1 mL/min/kg
half-life [4, 8]: 17.7 min
AUC(0-t) ([4]; Wistar-Han, plasma, oral 10 mg/kg): 1020 ng·h/mL
bioavailability ([4]; Wistar-Han, plasma, oral 10 mg/kg vs intravenous 1 mg/kg, read-out: F (%) bioavailability): 22.6%
CL ([4]; intravenous 1 mg/kg): 39.1 mL/min/kg
T1/2 ([4]; intravenous 1 mg/kg): 17.7 min
AUClast ([4]; oral 10 mg/kg): 1025 ng·h/mL
F (%) bioavailability [4, 7]: 22.6%
intrinsic activity (agonist, antagonist or inverse agonist) (MT1 receptor): agonist
SMILES: COc1ccc2cccc(CCNC(C)=O)c2c1 [IA2-76, agomelatine, reference compound]
absolute bioavailability [5]: 1%

Source: patent US10781182B2, “Compounds, process for obtaining the compounds, pharmaceutical composition, use of the compounds and method for treating psychiatric disorders and/or sleep disorders” (ACHÉ LABORATÓRIOS FARMACÊUTICOS S.A., priority 2016, dated 2020)
